In this test the target is T1, butyrylcholinesterase (BChE) (Equus caballus, UniProt P81908).
T1 construct: purchased Merck Life Science S.r.l; (Milan, Italy); host or cells: equine serum
In words: In vitro BChE inhibition test (spectrophotometric, Ellman). The settings on record: 1.0 µg/mL in reaction mixture, read-out: % Enzyme Inhibition (n = 3). Type of test: biochemical, equine. On the technique in general: DTNB colorimetry detects thiols as they appear.

Data on 1 molecule can be found in PMC13119441, “Linking Chemical Profile to Enzyme Inhibition: A Comprehensive Bio-Guided Study of Lippia origanoides Kunth Essential Oil” (Plants, 2026).

Molecules are shown by their SMILES. Structures can show the parent of a compound that is named as a salt.

T1 sequence (P81908 whole entry): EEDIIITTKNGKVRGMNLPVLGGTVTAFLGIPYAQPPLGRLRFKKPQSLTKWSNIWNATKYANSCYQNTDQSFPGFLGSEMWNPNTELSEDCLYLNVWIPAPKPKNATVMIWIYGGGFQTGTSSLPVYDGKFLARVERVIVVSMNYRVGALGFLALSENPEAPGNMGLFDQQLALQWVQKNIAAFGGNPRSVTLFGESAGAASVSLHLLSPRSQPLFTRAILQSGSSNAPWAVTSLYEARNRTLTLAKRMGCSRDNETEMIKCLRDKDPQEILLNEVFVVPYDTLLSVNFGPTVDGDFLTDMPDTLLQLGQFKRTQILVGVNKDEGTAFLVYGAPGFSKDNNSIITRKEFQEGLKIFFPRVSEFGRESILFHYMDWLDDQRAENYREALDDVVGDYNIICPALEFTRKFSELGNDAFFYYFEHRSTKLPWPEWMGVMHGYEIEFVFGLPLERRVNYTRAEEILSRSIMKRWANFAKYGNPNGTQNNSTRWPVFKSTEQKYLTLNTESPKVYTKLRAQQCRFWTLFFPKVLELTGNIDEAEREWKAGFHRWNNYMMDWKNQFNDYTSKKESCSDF
Description: The assays were optimized for essential oil matrices, particularly by adjusting solvent conditions (DMSO content), substrate/enzyme ratios, and assay timing to ensure measurements within the linear kinetic range. The percentage inhibition of AChE, BChE, α-glucosidase, lipase and tyrosinase was measured according to the equation below: % Inhibition=∆AControl−∆A(Sample)/∆AControl×100 where: ∆A (Control) = A Control − A Control Blank∆A(Sample) = A Sample − A Sample Blank
The buffers used in the experiment were: buffer A (50 mM Tris-HCl, pH 8), buffer B (50 mM Tris-HCl, pH 8, supplemented with 0.1% bovine albumin and 0.1% TWEEN20) and buffer C (50 mM Tris-HCl, pH 8, containing 0.1 M NaCl and 0.02 M MgCl2•6H2O). The solutions for both enzymes (0.22 U/mL) were prepared using buffer B. Acetylthiocholine iodide (ATCI) at 1.5 mM was dissolved in Millipore water, while butyrylthiocholine iodide (BTCI) was dissolved in buffer A. Ellman’s reagent solution (3 mM) was prepared in buffer C.
The final concentration of DMSO in the reaction mixture was 0.3%. The mixture was incubated at 30 °C for 6 min, after which absorbance was measured at 405 nm.

As for `COc1ccc2c3c1O[C@H]1C[C@@H](O)C=C[C@@]31CCN(C)C2` [Galanthamine, galanthamine hydrobromide], the inhibition – broadly, the relative decrease from the control value, in per cent – at 1 µg/mL was found to be 24.7%.
